PubChem BioAssay (NCI)
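Dose response: 5 concentrations. Exposure: 48 h. Format: 96-well plates. Endpoint: linear interpolation; highest concentration if not reached. At the GI50, growth is halved. TGI denotes the concentration required for complete inhibition of growth.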

How the values were obtained:
Experiment in all cases: NCI tumour cell line growth inhibition, 48 h
786-0 renal = test system: 786-0 renal
A498 renal = test system: A498 renal
A549 NSCLC = test system: A549 NSCLC
ACHN renal = test system: ACHN renal
BT-549 breast = test system: BT-549 breast
CAKI-1 renal = test system: CAKI-1 renal
CCRF-CEM leukemia = test system: CCRF-CEM leukemia
COLO 205 colon = test system: COLO 205 colon
DU-145 prostate = test system: DU-145 prostate
EKVX NSCLC = test system: EKVX NSCLC
HCC-2998 colon = test system: HCC-2998 colon
HCT-116 colon = test system: HCT-116 colon
HCT-15 colon = test system: HCT-15 colon
HL-60(TB) leukemia = test system: HL-60(TB) leukemia
HOP-62 NSCLC = test system: HOP-62 NSCLC
HOP-92 NSCLC = test system: HOP-92 NSCLC
HS 578T breast = test system: HS 578T breast
HT29 colon = test system: HT29 colon
IGROV1 ovarian = test system: IGROV1 ovarian
K-562 leukemia = test system: K-562 leukemia
KM12 colon = test system: KM12 colon
LOX IMVI melanoma = test system: LOX IMVI melanoma
M14 melanoma = test system: M14 melanoma
MALME-3M melanoma = test system: MALME-3M melanoma
MCF7 breast = test system: MCF7 breast
MDA-MB-435 = test system: MDA-MB-435
MDA-MB-468 breast = test system: MDA-MB-468 breast
MOLT-4 leukemia = test system: MOLT-4 leukemia
NCI-H226 lung = test system: NCI-H226 lung
NCI-H23 lung = test system: NCI-H23 lung
NCI-H460 lung = test system: NCI-H460 lung
NCI-H522 lung = test system: NCI-H522 lung
NCI/ADR-RES ovarian = test system: NCI/ADR-RES ovarian
OVCAR-3 ovarian = test system: OVCAR-3 ovarian
OVCAR-4 ovarian = test system: OVCAR-4 ovarian
OVCAR-5 ovarian = test system: OVCAR-5 ovarian
OVCAR-8 ovarian = test system: OVCAR-8 ovarian
PC-3 prostate = test system: PC-3 prostate
RPMI-8226 leukemia = test system: RPMI-8226 leukemia
RXF 393 renal = test system: RXF 393 renal
SF-268 CNS = test system: SF-268 CNS
SF-295 CNS = test system: SF-295 CNS
SF-539 CNS = test system: SF-539 CNS
SK-MEL-28 melanoma = test system: SK-MEL-28 melanoma
SK-MEL-5 melanoma = test system: SK-MEL-5 melanoma
SK-OV-3 ovarian = test system: SK-OV-3 ovarian
SN12C renal = test system: SN12C renal
SNB-19 CNS = test system: SNB-19 CNS
SR leukemia = test system: SR leukemia
SW-620 colon = test system: SW-620 colon
T-47D breast = test system: T-47D breast
TK-10 renal = test system: TK-10 renal
U251 CNS = test system: U251 CNS
UACC-257 melanoma = test system: UACC-257 melanoma
UACC-62 melanoma = test system: UACC-62 melanoma

COc1c(B(O)O)cc(F)cc1-c1nc2c(F)cc3[nH]ncc3c2c2c1CCCC2 gave a GI50 (786-0 renal) of 2.02 µM, a TGI (786-0 renal) of 18.7 µM and a GI50 (A498 renal) of 12.8 µM. The TGI (A498 renal) was 46.5 µM, the GI50 (A549 NSCLC) was 3.53 µM and the TGI (A549 NSCLC) was 86.5 µM. It also gave a GI50 (ACHN renal) of 1.38 µM, a TGI (ACHN renal) of 42.4 µM and a GI50 (BT-549 breast) of 0.0845 µM. The TGI (BT-549 breast) was 6.85 µM, the GI50 (CAKI-1 renal) was 0.158 µM and the TGI (CAKI-1 renal) was 1.58 µM. It also gave a GI50 (CCRF-CEM leukemia) of 3.07 µM, a TGI (CCRF-CEM leukemia) of 80.3 µM and a GI50 (COLO 205 colon) of 4.85 µM. The TGI (COLO 205 colon) was 19.3 µM, the GI50 (DU-145 prostate) was 6.53 µM and the TGI (DU-145 prostate) was 56.4 µM. The GI50 (EKVX NSCLC) was 5.04 µM, the TGI (EKVX NSCLC) was 63.4 µM and the GI50 (HCC-2998 colon) was 11.8 µM. For the same compound, the TGI (HCC-2998 colon) was 40.1 µM, the GI50 (HCT-116 colon) was 2.1 µM and the TGI (HCT-116 colon) was 36.7 µM. It also gave a GI50 (HCT-15 colon) of 4.45 µM, a TGI (HCT-15 colon) of 44.5 µM and a GI50 (HL-60(TB) leukemia) of 2.42 µM. For the same compound, the TGI (HL-60(TB) leukemia) was 10.9 µM, the GI50 (HOP-62 NSCLC) was 2.95 µM and the TGI (HOP-62 NSCLC) was 54 µM. It also gave a GI50 (HOP-92 NSCLC) of 0.0199 µM, a TGI (HOP-92 NSCLC) of 86.5 µM and a GI50 (HS 578T breast) of 0.293 µM. The TGI (HS 578T breast) was 63.9 µM, the GI50 (HT29 colon) was 14.6 µM and the TGI (HT29 colon) was greater than 100 µM. For the same compound, the GI50 (IGROV1 ovarian) was 7.75 µM, the TGI (IGROV1 ovarian) was 45.9 µM and the GI50 (K-562 leukemia) was 19.1 µM. For the same compound, the TGI (K-562 leukemia) was greater than 100 µM, the GI50 (KM12 colon) was 4.47 µM and the TGI (KM12 colon) was 31.6 µM. It also gave a GI50 (LOX IMVI melanoma) of 2.43 µM, a TGI (LOX IMVI melanoma) of 16.5 µM and a GI50 (M14 melanoma) of 16.4 µM. The TGI (M14 melanoma) was 35.4 µM, the GI50 (MALME-3M melanoma) was 14.8 µM and the TGI (MALME-3M melanoma) was 34.2 µM. The GI50 (MCF7 breast) was 3.83 µM, the TGI (MCF7 breast) was 23.1 µM and the GI50 (MDA-MB-435) was 13.8 µM. For the same compound, the TGI (MDA-MB-435) was 34.2 µM, the GI50 (MDA-MB-468 breast) was 11.7 µM and the TGI (MDA-MB-468 breast) was 39.9 µM. The GI50 (MOLT-4 leukemia) was 2.75 µM, the TGI (MOLT-4 leukemia) was 30.9 µM and the GI50 (NCI-H226 lung) was 3.3 µM. The TGI (NCI-H226 lung) was 72.8 µM, the GI50 (NCI-H23 lung) was 7.03 µM and the TGI (NCI-H23 lung) was 31.3 µM. It also gave a GI50 (NCI-H460 lung) of 4.1 µM, a TGI (NCI-H460 lung) of 28.9 µM and a GI50 (NCI-H522 lung) of 3.66 µM. The TGI (NCI-H522 lung) was 43.6 µM, the GI50 (NCI/ADR-RES ovarian) was 8.18 µM and the TGI (NCI/ADR-RES ovarian) was greater than 100 µM. It also gave a GI50 (OVCAR-3 ovarian) of 15.5 µM, a TGI (OVCAR-3 ovarian) of 72.6 µM and a GI50 (OVCAR-4 ovarian) of 14.9 µM. It also gave a TGI (OVCAR-4 ovarian) of 59.4 µM, a GI50 (OVCAR-5 ovarian) of 5.77 µM and a TGI (OVCAR-5 ovarian) of 66 µM. The GI50 (OVCAR-8 ovarian) was 4.82 µM, the TGI (OVCAR-8 ovarian) was greater than 100 µM and the GI50 (PC-3 prostate) was 4.9 µM. For the same compound, the TGI (PC-3 prostate) was greater than 100 µM, the GI50 (RPMI-8226 leukemia) was 2.14 µM and the TGI (RPMI-8226 leukemia) was 19.6 µM. For the same compound, the GI50 (RXF 393 renal) was 0.0887 µM, the TGI (RXF 393 renal) was 1.9 µM and the GI50 (SF-268 CNS) was 3.05 µM. The TGI (SF-268 CNS) was 81.1 µM, the GI50 (SF-295 CNS) was 10.7 µM and the TGI (SF-295 CNS) was 40.1 µM. It also gave a GI50 (SF-539 CNS) of 0.596 µM, a TGI (SF-539 CNS) of 12.7 µM and a GI50 (SK-MEL-28 melanoma) of 13.1 µM. It also gave a TGI (SK-MEL-28 melanoma) of 38.4 µM, a GI50 (SK-MEL-5 melanoma) of 14.4 µM and a TGI (SK-MEL-5 melanoma) of 33.2 µM. It also gave a GI50 (SK-OV-3 ovarian) of 4.1 µM, a TGI (SK-OV-3 ovarian) of 77.2 µM and a GI50 (SN12C renal) of 2.9 µM. It also gave a TGI (SN12C renal) of 62.2 µM, a GI50 (SNB-19 CNS) of 3.46 µM and a TGI (SNB-19 CNS) of 66.4 µM. It also gave a GI50 (SR leukemia) of 1.4 µM, a TGI (SR leukemia) of 11.4 µM and a GI50 (SW-620 colon) of 4.15 µM. For the same compound, the TGI (SW-620 colon) was greater than 100 µM, the GI50 (T-47D breast) was 12.5 µM and the TGI (T-47D breast) was 61.9 µM. It also gave a GI50 (TK-10 renal) of 0.275 µM, a TGI (TK-10 renal) greater than 100 µM and a GI50 (U251 CNS) of 5.34 µM. For the same compound, the TGI (U251 CNS) was greater than 100 µM, the GI50 (UACC-257 melanoma) was 14.6 µM and the TGI (UACC-257 melanoma) was 62.8 µM. The GI50 (UACC-62 melanoma) was 4.09 µM and the TGI (UACC-62 melanoma) was 17.1 µM.
